Experimental data from patent publication US20250034139A1, “AMINE COMPOUNDS HAVING ANTI-INFLAMMATORY, ANTIFUNGAL, ANTIPARASITIC, AND ANTICANCER ACTIVITY” (PHARMA CINQ, LLC, priority 2013, published 2025).
≈ marks a conversion by molar mass, not a printed value.

What was measured:
THP-1 cells = assay: Example D: LPS-triggered THP-1 cell death assay, acute/5-hour and chronic/48-hour; format: cell-based, Human; details: 10 ng/ml LPS, 0.1 μM test compound, 48 hours
Procedure: Compounds of the invention were tested at 0.1 μM versus AC in the LPS-triggered THP-1 cell death assay. Both acute/5-hour and chronic/48-hour phases of cell death were assessed. Compounds were screened in batches with DMSO as the negative control and AC as the high activity control.

S. cerevisiae = assay: Example I: Saccharomyces cerevisiae growth inhibition (OD 600 nm); format: cell-based; details: for IC50 / MIC: Saccharomyces cerevisiae, 18 hour incubation at 30° C., OD 600 nm, XLfit; for IC50: read-out: IC50, uM (50% inhibition of fungal growth); for MIC: read-out: MIC, uM (99% of inhibition of fungal growth)
Procedure: An overnight culture of S. cerevisiae was dilution in YPD broth to concentration of 40,000/ml and 150 μl/well was plated in 96 well plates. Compounds were then added to each well with concentration ranged from 4 to 50 μM as final concentration. The plates were inoculated at 30° C. overnight with shaking at 220 rpm and absorbance at 600 nm was read after 18 hour incubation.
• 1. One days prior to the inoculum preparation, pick a single colony of S. cerevisiae from the Sabouraud Dextrose Agar plate using the inoculum loop and inoculate into a 50 mL tube containing 10 ml of YPD growth medium • 2. Incubate at 30° C. with shaking at 220 rpm for 24 hours with loosen lid to allow air in and facilitates growth. • 3. Examine an aliquot of the culture under a microscope for yeast cell morphology and lack of bacterial contamination. • 4. Dilute the overnight culture with YPD medium at 1:30 dilution (70 ul to 2.1 ml) and count the number of cells as 4,230,000/ml. • 5. Mix 620 μl of 1:30 dilution and 64.4 ml YPD to make final concentration of 40,000/ml cells • 6. Plated 144 μl/well in four 96-well plates.
• 1. From 10 mM DMSO stock solutions, make serial dilutions of compounds to 0.1, 0.2, 0.3, 0.63 and 1.25 mM solutions • 2. Add 6 μl each of diluted compound solutions per well in duplicates. The final concentrations were 0, 4, 8, 12, 25 and 50 micromolar. • 3. Incubated all plates at 30 C for overnight (˜18 hours) with 220 rpm shaking. • 4. Read absorbance at OD600 for each plate on Spectra Max Plus plate reader. • 5. Calculate the % inhibition of each compound against the DMSO treated cell and plotted.

[1] = test system: 4T1 murine breast cancer cells; assay: Example S: in vitro anticancer screen, 4T1 cells, Wst1; format: cell-based, mouse; details: Mus musculus, 4T1, 18 h, 18 hr, Wst1; for viability at 1 µM: read-out: 4T1 1 μM, percent of cancer cell survival relative to vehicle treated cells; for viability at 5 µM: read-out: 4T1 5 μM, percent of cancer cell survival relative to vehicle treated cells
In short: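 4T1 cells seeded at 1×10^4/well were exposed to compound at 1 μM or 5 μM for 18 hr after plating. Wst1 tetrazolium dye was then added for about 2 hr and absorbance read at 450 nm (reference 630 nm). Values are percent survival relative to vehicle-treated cells.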

[2] = test system: PC3 human prostate cancer cells; assay: Example S: in vitro anticancer screen, PC-3 cells, Wst1; format: cell-based; details: Homo sapiens, PC-3, approximately 20 hours, Wst1, read-out: PC-3, percent of cancer cell survival relative to vehicle treated cells
In short: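 PC-3 cells, 2×10^4 cells/well, exposed ~20 h to vehicle or compound at 0.4, 0.5 or 2.5 μM as specified per compound. Wst1 dye added for 2 h; absorbance 450 nm (reference 630 nm), triplicates. Values are percent cell survival versus vehicle-treated cells.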

[3] = test system: PC-3 prostate cancer cells; assay: Example T: sensitisation of PC-3 cells to doxorubicin, oxaliplatin, paclitaxel or vincristine, Wst1; format: cell-based, human; details: PC-3 cells, 72 hours; for viability at 2.5 µM / viability at 0.4 µM: Homo sapiens, Wst1, vehicle = 100, read-out: No Chemo: percent cell survival; for viability at 2.5 µM: compound 2.5 μM alone; for Doxorubicin 3.5 μM: percent cell survival / Oxaliplatin 100 μM: percent cell survival / Paclitaxel 50 μM: percent cell survival / Vincristine 100 nM: percent cell survival: chemotherapy agent alone normalized to 100%; for viability at 0.4 µM: compound 0.4 μM alone
[4] = test system: Candida albicans strain 3153; assay: Example H: Candida albicans growth inhibition (OD 600 nm); format: cell-based
Procedure: A single colony of Candida Albicans was grown in 50 ml YPD broth overnight (19 hr). The cells were washed with PBS and 3.5×10^4 CFU/ml of C. Albicans (144 μl/well) in YPD medium were plated in 96 well plates. Test compounds were then added to each well with concentration ranged from 5 to 40 μM as final concentrations. The plates were incubated at 30° C. overnight (24 hrs) and OD at 600 nm was read at the end of incubation as an index of yeast cell density.
Part-I: Preparation of Candida albicans Cells • 1. One day prior to the inoculum preparation, pick a single colony of Candida albicans strain 3153 (lot #61794) from the Sabouraud Dextrose Agar plate using the inoculum loop and inoculate into a 250 mL flask containing 50 ml of YPD growth medium • 2. Incubate at 30° C. with shaking at 150 rpm for at least 18 hours with loosened lid to allow air in and facilitate growth. • 3. Examine an aliquot of the culture under a microscope for Candida cell morphology and lack of bacterial contamination; >95% of Candida cells should be blastoconidia. • 4. Transfer 25 ml the overnight culture into a 50-ml plastic disposable centrifuge tube, and centrifuge at 1000×g for 20 min. • 5. Discard the supernatant and wash the pellet with 4 ml of PBS at three times. Vortex and centrifuge, 1000×g for 10 min. • 6. After the third wash, dispense the pellet with 2 ml PBS and vortex. • 7. Make three 1:10 serial dilutions in sterile PBS (10^−1, 10^−2, 10^−3) from the 2 ml cell suspension using 15 ml culture tubes. The final volume in each tube is 5 ml. • 8. […] Make a 1:4 dilution in YPD medium from the 50-fold dilution of 10^−3 cell suspension for testing compounds. • The final C. albicans cell concentration for the test: 3.5×10^4 CFU/ml • 10. Plated 144 ul/well of the above dilution of cell on 96-well plates. Part-II: C. Albicans Growth Inhibition Testing with Compounds • 1. From 10 mM DMSO stock solutions, make serial dilutions of compounds to 0.13, 0.25, 0.40, 0.55, 0.75 and 1.0 mM solutions • 2. Add 6 ul each of diluted compound solutions per well in duplicates. The final concentrations were 0, 5, 10, 16, 22, 30 and 40 micromolar. • 3. Incubated all plates at 30 C for overnight (˜24 hours). • 4. Read absorbance at OD600 for each plate. • 5. Calculate the % inhibition of each compound against the DMSO treated cell.

[5] = test system: imiquimod-induced dermatitis; details: for Ear thickness, Mean ± SEM: imiquimod-treated mice; for Ear thickness, Mean ± SEM / PASI Score, Mean ± SEM: topical ointment 0.06% active drug (dexamethasone 0.03%, tacrolimus 0.1%); for PASI Score, Mean ± SEM: scale 0-12
Procedure: Topical imiquimod (IMQ), a toll-like receptor agonist, has been established as a model of Inflammatory skin diseases including psoriasis and atopic dermatitis. Dermal inflammatory changes and gene expression in mice treated with topical imiquimod mimic human psoriasis and dermatitis (van der Fits et al., 2009; Swindell et al., 2011). The effect of a set of compounds of the invention were tested in a mouse model of imiquimod-induced dermatitis, with topical tacrolimus and dexamethasone as comparators for assessing safety and efficacy relative to standard agents used to treat dermatitis in humans.
Commercial 0.1% tacrolimus ointment (ProTopic™[…]) was also used as an active comparator. Petrolatum containing 10% ethanol was used as a control treatment.
Female Balb/C mice (8 weeks old) were randomized and divided into groups of 5 animals each. Polyethylene collars were affixed to the mice to prevent them from easily scratching their ears. 5% imiquimod was applied to both ears of each mouse (20 microliters per ear) daily for 5 days, and then every other day for the full duration of the study. […] On day 7 after initiation of imiquimod, treatment with topical agents was started. Both ears of each mouse were treated with test ointments, with one compound per mouse.
Ear thickness and PASI assessments (Psoriasis Area and Severity Index, a standard psoriasis scoring system) were recorded twice per week throughout the study. The PASI score comprises the sum of evaluations of swelling, erythema and scaling on scales from 0 to 4; the maximum PASI score is 12, and the minimum, in unaffected skin, is 0).

[6] = compound 2.5 μM + doxorubicin 3.5 μM
[7] = compound 2.5 μM + oxaliplatin 100 μM
[8] = compound 2.5 μM + paclitaxel 50 μM
[9] = compound 2.5 μM + vincristine 100 nM
[10] = compound 0.4 μM + doxorubicin 3.5 μM
[11] = compound 0.4 μM + oxaliplatin 100 μM
[12] = compound 0.4 μM + paclitaxel 50 μM
[13] = compound 0.4 μM + vincristine 100 nM

| SMILES | IC50 (S. cerevisiae) [µM] | D BW ([5]; mouse, in vivo) [g] | Viable cell percent change, Chronic/48-hour, Mean (THP-1 cells) [%] | viability at 1 µM [1] [%] | viability at 5 µM [1] [%] | viability at 0.4 µM [2] [%] | Ear thickness, Mean ± SEM [5] | Body Weight (mean ± SEM), Final ([5]; mouse, in vivo) [g] | Body Weight (mean ± SEM), Initial ([5]; mouse, in vivo) [g] | PASI Score, Mean ± SEM [5] | other results |
| --- | --- | --- | --- | --- | --- | --- | --- | --- | --- | --- | --- |
| CCCCCCOCCCCCCCCNc1ccnc2cc(C(F)(F)F)ccc12 [AY, N-[8-(Hexyloxy)octyl]-7-(trifluoromethyl)quinolin-4-amine] | 16.9 |  | 7.71 | 131 | 34.5 |  |  |  |  |  | MIC (S. cerevisiae): 21.9 µM (≈ 9.29 µg/mL); viability at 2.5 µM [2]: 50.4%; viability at 2.5 µM [3]: 50.4%; Doxorubicin 3.5 μM: percent cell survival [3, 6]: 78.9%; Oxaliplatin 100 μM: percent cell survival [3, 7]: 92%; Paclitaxel 50 μM: percent cell survival [3, 8]: 90.1%; Vincristine 100 nM: percent cell survival [3, 9]: 78.7% |
| CCCCCCNC(=O)c1cccc(Nc2ccnc3ccccc23)c1 [BV, N-Hexyl-3-(quinolin-4-ylamino)benzamide] | 12.3 |  | 42.14 |  |  | 31.6 |  |  |  |  | MIC (S. cerevisiae): 25 µM (≈ 8.69 µg/mL) |
| c1ccc(Oc2ccc(Nc3ccnc4ccccc34)cc2)cc1 [DD, N-(4-Phenoxyphenyl)quinolin-4-amine] |  | -0.2 | 44.34 | 97.4 | 104 |  | 0.589 ± 0.018 | 20.7 ± 0.6 | 20.9 ± 0.8 | 7.450 ± 0.322 |  |
| c1ccc(Oc2cccc(Nc3ccnc4ccccc34)c2)cc1 [DE, N-(3-Phenoxyphenyl)quinolin-4-amine] |  | -0.1 | 25.65 | 60.1 | 28.6 |  | 0.593 ± 0.016 | 20.5 ± 0.5 | 20.6 ± 0.5 | 7.250 ± 0.183 | viability at 2.5 µM [2]: 42%; viability at 2.5 µM [3]: 42%; Doxorubicin 3.5 μM: percent cell survival [3, 6]: 69.3%; Oxaliplatin 100 μM: percent cell survival [3, 7]: 84.7%; Paclitaxel 50 μM: percent cell survival [3, 8]: 68.6%; Vincristine 100 nM: percent cell survival [3, 9]: 74% |
| CCCCCCCCCCOc1cccc(CNc2ccnc3ccccc23)c1 [DU, N-[3-(Decyloxy)benzyl]quinolin-4-amine] |  |  | 17.10 |  |  |  | 0.607 ± 0.027 | 20.9 ± 0.5 | 20.4 ± 0.7 | 7.975 ± 0.621 | D BW (g) ([5]; mouse, in vivo): +0.5 g |

Further lines, with some results ahead:

| IC50 (S. cerevisiae) [µM] | D BW ([5]; mouse, in vivo) [g] | SMILES | Viable cell percent change, Chronic/48-hour, Mean (THP-1 cells) [%] | viability at 1 µM [1] [%] | viability at 5 µM [1] [%] | viability at 0.4 µM [2] [%] | Ear thickness, Mean ± SEM [5] | Body Weight (mean ± SEM), Final ([5]; mouse, in vivo) [g] | Body Weight (mean ± SEM), Initial ([5]; mouse, in vivo) [g] | PASI Score, Mean ± SEM [5] | other results |
| --- | --- | --- | --- | --- | --- | --- | --- | --- | --- | --- | --- |
| 6.31 |  | c1ccc2c(NCCCCCCCCNc3ccnc4ccccc34)ccnc2c1 [Compound AI, N^1,N^8-Di(quinolin-4-yl)octane-1,8-diamine] | 28.60 | 16.2 | 17.9 | 36.4 |  |  |  |  | MIC ([4]; Candida albicans, 3153, 24 hrs at 30° C., YPD, XLfit, read-out: MIC (uM) (99% of inhibition of fungal growth)): 56.4 µM (≈ 22.5 µg/mL); IC50 ([4]; Candida albicans, 3153, read-out: IC50 (uM) (50% inhibition of fungal growth), 24 hrs at 30° C., YPD, XLfit): 18.3 µM; inactive compound (inhibition of yeast growth, in words) (S. cerevisiae; tested 4 to 50 μM): could not reach near 100% kill at high concentration; viability at 0.4 µM [3]: 36.4%; Doxorubicin 3.5 μM: percent cell survival [3, 10]: 80.8%; Oxaliplatin 100 μM: percent cell survival [3, 11]: 89%; Paclitaxel 50 μM: percent cell survival [3, 12]: 96.1%; Vincristine 100 nM: percent cell survival [3, 13]: 64.9% |
|  | -0.2 | O=C(NCCCCCCCCNc1ccnc2ccccc12)c1cccnc1 [EF, N-[8-(Quinolin-4-ylamino)octyl]nicotinamide] |  | 15.6 | 23.7 | 16.7 | 0.613 ± 0.010 | 21.3 ± 0.2 | 21.5 ± 0.6 | 7.275 ± 0.199 | viability at 0.4 µM [3]: 16.7%; Doxorubicin 3.5 μM: percent cell survival [3, 10]: 31.3%; Oxaliplatin 100 μM: percent cell survival [3, 11]: 21.7%; Paclitaxel 50 μM: percent cell survival [3, 12]: 24.3%; Vincristine 100 nM: percent cell survival [3, 13]: 23.4% |
